Source: patent US9278958B2, “Anti-cancer compounds” (KATHOLIEKE UNIVERSITEIT LEUVEN, priority 2012, dated 2016)
Like-named read-outs stand apart in the source and are kept apart here.

Assays:
[1] = test system: U937, human monocytic cells; test: Cytostatic assay, U937; type: cell-based; settings: U-937, Table 2
Procedure, shortened: (§1)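 Each cell line grows in the presence of compound for 48 h to 96 h, the duration chosen per line, at 37° C in a humid CO2-regulated incubator. Seeding is 5-7.5×10^4 cells per well, and final counts come from a Coulter counter.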

[2] = test system: PNT1A (UZ) prostate cells; test: Cytostatic assay, PNT1A (UZ); type: cell-based; settings: Homo sapiens, Table 4
Procedure, shortened: as §1

[3] = test system: PLC/PRF/5 hepatoma cells; test: Cytostatic assay, PLC/PRF/5; type: cell-based; settings: Homo sapiens, Table 4
Procedure, shortened: as §1

[4] = test system: HeLa cervix carcinoma cells; test: Cytostatic assay, HeLa; type: cell-based, human; settings: Homo sapiens; Table 3; read-out: Cytostatic activity (μM) Hela
Procedure, shortened: as §1

[5] = test system: Raji, human B-lymphoma cells; test: Cytostatic assay, Raji; type: cell-based; settings: Table 2
Procedure, shortened: as §1

[6] = test system: DU145 (UZ) prostate cancer cells; test: Cytostatic assay, DU145 (UZ); type: cell-based; settings: Homo sapiens, DU-145; Table 4
Procedure, shortened: as §1

[7] = test system: FM3A mammary carcinoma cells; test: Cytostatic assay, FM3A; type: cell-based, murine; settings: Mus musculus, Table 3
Procedure, shortened: as §1

[8] = test system: OST TK- osteosarcoma cells; test: Cytostatic assay, OST TK-; type: cell-based; settings: Homo sapiens; Table 3
Procedure, shortened: as §1

[9] = test system: Daudi, human B-lymphoma cells; test: Cytostatic assay, Daudi; type: cell-based; settings: Table 2
Experimental: (§2) To each well of a 96-well microtiter plate were added 5-7.5×10^4 cells and a given amount of the test compound. The cells were allowed to proliferate for 48 h to 96 h (depending on the nature of the cell line) at 37° C. in a humidified CO2-controlled atmosphere. At the end of the incubation period, the cells were counted in a Coulter Counter (Coulter Electronics Ltd, Harpenden Herts, United Kingdom).

[10] = test system: HL60, human leukemia cells; test: Cytostatic assay, HL-60; type: cell-based; settings: Table 2
Procedure, shortened: as §1

[11] = test system: HOS CD4+ osteosarcoma cells; test: Cytostatic assay, HOS CD4+; type: cell-based; settings: Homo sapiens; Table 3
Experimental: as §2

[12] = test system: protein synthesis in CEM cells; test: Antimetabolic activity assay, [4,5-3H]leucine incorporation (protein synthesis), CEM; type: cell-based; settings: Homo sapiens, CCRF-CEM, incorporation into TCA-insoluble material
Experimental: (§3) Radiolabeled precursors of DNA synthesis ([^3H-methyl]dThd), RNA synthesis ([5-^3H]Urd), and protein synthesis ([4,5-^3H]leu) were added to 10^5 CEM cell cultures in the 200 μl-wells of a microtiter plate at 1 μCi for each precursor in the presence of varying concentrations of the test compounds (5-fold dilution series). The cells were allowed to proliferate for 20 hrs at 37° C. in a humidified, CO2-controlled atmosphere. At the end of the incubation period, the contents of the wells were brought onto 25-mm glass fiber filters and further processed for measurement of acid-insoluble radioactivity.

[13] = test system: MT-4 cells; test: Cytostatic assay, MT-4; type: cell-based; settings: Homo sapiens, MT4; Table 2
Procedure, shortened: as §1

[14] = test system: 293T embryonic kidney cells; test: Cytostatic assay, 293T; type: cell-based; settings: Homo sapiens, HEK-293T; Table 3
Procedure, shortened: as §1

[15] = test system: HUT-78 cells; test: Cytostatic assay, HUT-78; type: cell-based; settings: Homo sapiens, HuT78; Table 2
Procedure, shortened: as §1

[16] = test system: MCF-7 mammary carcinoma cells; test: Cytostatic assay, MCF-7; type: cell-based; settings: Homo sapiens, MCF7; Table 3
Procedure, shortened: as §1

[17] = test system: U87 glioma cells; test: Cytostatic assay, U87; type: cell-based; settings: Homo sapiens, U-87 MG; Table 3
Procedure, shortened: as §1

[18] = test system: HEL embryonic lung fibroblast cells; test: Cytostatic assay, HEL; type: cell-based; settings: Homo sapiens, Table 3
Procedure, shortened: as §1

[19] = test system: PC-3 (UZ) prostate cancer cells; test: Cytostatic assay, PC-3 (UZ); type: cell-based; settings: Table 4
Procedure, shortened: as §1

[20] = test system: C8166 cells; test: Cytostatic assay, C8166; type: cell-based; settings: Homo sapiens, Table 2
Procedure, shortened: as §1

[21] = test system: CEM cells; test: Cytostatic assay, CEM; type: cell-based; settings: Homo sapiens, CCRF-CEM
Procedure, shortened: as §1

[22] = test system: broad variety of tumor cell lines; test: Cytostatic assays, summary over the panel of cell lines (Tables 2-4); type: cell-based
Experimental: as §2

[23] = test system: U87 CD4+/CXCR4+/CCR5+ glioma cells; test: Cytostatic assay, U87 CD4+/CXCR4+/CCR5+; type: cell-based; settings: Homo sapiens, Glioma cell; Table 3
Experimental: as §2

[24] = test system: Molt4/C8 cells; test: Cytostatic assay, Molt4/C8; type: cell-based; settings: Table 2
Procedure, shortened: as §1

[25] = test system: PC3 (rega) prostate cancer cells; test: Cytostatic assay, PC3 (rega); type: cell-based; settings: Table 4
Procedure, shortened: as §1

[26] = test system: DNA synthesis in CEM cells; test: Antimetabolic activity assay, [CH3-3H]dThd incorporation (DNA synthesis), CEM; type: cell-based; settings: Homo sapiens, CCRF-CEM, incorporation into TCA-insoluble material
Experimental: as §3

[27] = test system: 22Rv1 (UZ) prostate cancer cells; test: Cytostatic assay, 22Rv1 (UZ); type: cell-based; settings: Homo sapiens, Table 4
Procedure, shortened: as §1

[28] = test system: MT-2 cells; test: Cytostatic assay, MT-2; type: cell-based; settings: Homo sapiens, MT2; Table 2
Procedure, shortened: as §1

[29] = test system: protein synthesis in Raji cells; test: Antimetabolic activity assay, [4,5-3H]leucine incorporation (protein synthesis), Raji; type: cell-based; settings: Homo sapiens, incorporation into TCA-insoluble material
Experimental: [The procedure below names another cell line; the source lists this cell line under the same test.] as §3

[30] = test system: BPH-1 (UZ); test: Cytostatic assay, BPH-1 (UZ); type: cell-based; settings: Homo sapiens, Table 4
Procedure, shortened: as §1

[31] = test system: Caki-2 kidney carcinoma cells; test: Cytostatic assay, Caki-2; type: cell-based; settings: Homo sapiens, Table 3
Procedure, shortened: as §1

[32] = test system: Huh-7 hepatoma cells; test: Cytostatic assay, Huh-7; type: cell-based; settings: Homo sapiens, Table 4
Procedure, shortened: as §1

[33] = test system: HT29 colorectal carcinoma cells; test: Cytostatic assay, HT29; type: cell-based; settings: Homo sapiens, HT-29; Table 3
Procedure, shortened: as §1

[34] = test system: DNA synthesis in Raji cells; test: Antimetabolic activity assay, [CH3-3H]dThd incorporation (DNA synthesis), Raji; type: cell-based; settings: Homo sapiens, incorporation into TCA-insoluble material
Experimental: [The procedure below names another cell line; the source lists this cell line under the same test.] as §3

[35] = test system: THP-1, human monocytic cells; test: Cytostatic assay, THP-1; type: cell-based; settings: Table 2
Procedure, shortened: as §1

[36] = test system: HepG2C3A hepatoma cells; test: Cytostatic assay, HepG2C3A; type: cell-based; settings: Homo sapiens, HepG2/C3A; Table 4
Procedure, shortened: as §1

[37] = test system: LNCaP (UZ) prostate cancer cells; test: Cytostatic assay, LNCaP (UZ); type: cell-based; settings: Homo sapiens, Table 4
Procedure, shortened: as §1

[38] = test system: Sup T1 cells; test: Cytostatic assay, Sup T1; type: cell-based; settings: Homo sapiens, Table 2, read-out: Cytostatic activity (μM) Sup T 1
Procedure, shortened: as §1

[39] = test system: RNA synthesis in Raji cells; test: Antimetabolic activity assay, [5-3H]uridine incorporation (RNA synthesis), Raji; type: cell-based; settings: Homo sapiens, incorporation into TCA-insoluble material
Experimental: [The procedure below names another cell line; the source lists this cell line under the same test.] as §3

[40] = test system: BAEC aortic endothelial cells; test: Cytostatic assay, BAEC; type: cell-based, bovine; settings: Bos taurus, Table 3
Procedure, shortened: as §1

[41] = test system: RNA synthesis in CEM cells; test: Antimetabolic activity assay, [5-3H]uridine incorporation (RNA synthesis), CEM; type: cell-based; settings: Homo sapiens, CCRF-CEM, incorporation into TCA-insoluble material
Experimental: as §3

[42] = test system: Caki-1 kidney carcinoma cells; test: Cytostatic assay, Caki-1; type: cell-based; settings: Homo sapiens, Table 3
Procedure, shortened: as §1

[43] = Table 2, read-out: Cytostatic activity (μM) CEM
[44] = Homo sapiens, HuT78, range for the seven compounds, MT-4 and HUT-78 cells, read-out: IC50 range, cytostatic activity against MT-4 and HUT-78 cells
[45] = range for the seven compounds against the 5 tumor cell lines, read-out: IC50 range, cytostatic activity against CEM, Molt4/C8, Sup T1, MT-2 and C8166 cells

SMILES: COC(=O)c1cc(CCc2ccccc2OC)sc1N [TR567, 2-Amino-5-[2-(2-methoxy-phenyl)-ethyl]-thiophene-3-carboxylic acid methyl ester]
- IC50 [1]: 10 ± 0.85 µM
- IC50 [2]: 17 ± 2.8 µM
- IC50 [3]: 18 ± 4.2 µM
- IC50 [4]: 17 ± 2.1 µM
- IC50 [5]: 19 ± 4.2 µM
- IC50 [6]: 11 ± 7 µM
- IC50 [7]: 37 ± 0.71 µM
- IC50 [8]: 7.6 ± 2.4 µM
- IC50 [9]: 13 ± 0.71 µM
- IC50 [10]: 4 ± 3.3 µM
- IC50 [11]: 23 ± 4.2 µM
- IC50 [12]: 1.4 ± 0.9 µM
- IC50 [13]: 14 ± 2.8 µM
- IC50 [14]: 22 ± 15 µM
- IC50 [15]: 13 ± 4.2 µM
- IC50 [16]: 22 ± 3.5 µM
- IC50 [17]: 38 µM
- IC50 [18]: 20 ± 7.8 µM
- IC50 [19]: 1.4 ± 0.071 µM
- IC50 [20]: 3 ± 0.21 µM
- IC50 ([21]; Table 1a, read-out: IC50 μM (CEM)): 1.8 µM
- IC50 [21, 43]: 1.8 ± 0.92 µM
- IC50 [22, 44]: 8.5 to 60 µM
- IC50 [22, 45]: 0.22 to 3.4 µM
- IC50 [23]: 32 ± 2.1 µM
- IC50 [24]: 0.81 ± 0.49 µM
- IC50 [25]: 0.71 ± 0.28 µM
- IC50 [26]: 6.4 ± 4.1 µM
- IC50 [27]: 5.7 ± 2.8 µM
- IC50 [28]: 2.1 ± 0.071 µM
- IC50 [29]: 45 ± 8 µM
- IC50 [30]: 39 ± 2.8 µM
- IC50 [31]: 4.5 ± 1.9 µM
- IC50 [32]: 3.4 ± 1.2 µM
- IC50 [33]: 17 ± 7.8 µM
- IC50 [34]: 54 ± 8 µM
- IC50 [35]: 13 ± 1.4 µM
- IC50 [36]: 8.6 ± 0.28 µM
- IC50 [37]: 0.43 ± 0.14 µM
- IC50 [38]: 1.5 µM
- IC50 [39]: 68 ± 8 µM
- IC50 [40]: 20 ± 4.2 µM
- IC50 [41]: 2.6 ± 0.6 µM
- IC50 [42]: 3.7 ± 1.8 µM

SMILES: CCOC(=O)c1cc(CCc2ccc(OC)cc2)sc1N [TR532, 2-Amino-5-[2-(4-methoxy-phenyl)-ethyl]-thiophene-3-carboxylic acid ethyl ester]
- IC50 [1]: 43 ± 1.4 µM
- IC50 [2]: 37 ± 9.9 µM
- IC50 [3]: 24 ± 2.1 µM
- IC50 [4]: 39 µM
- IC50 [5]: 39 ± 2.8 µM
- IC50 [6]: 8.4 ± 1.6 µM
- IC50 [7]: 46 ± 6 µM
- IC50 [8]: 5.4 ± 3.3 µM
- IC50 [9]: 43 ± 2.1 µM
- IC50 [10]: 7 ± 8.7 µM
- IC50 [11]: 25 ± 5.7 µM
- IC50 [12]: 1.6 ± 1.1 µM
- IC50 [13]: 8.5 ± 0.92 µM
- IC50 [14]: 41 ± 0.71 µM
- IC50 [15]: 22 ± 9.2 µM
- IC50 [16]: 36 ± 5.7 µM
- IC50 [17]: 38 ± 1.4 µM
- IC50 [18]: 20 ± 8.5 µM
- IC50 [19]: 1.1 ± 0.49 µM
- IC50 [20]: 3.4 ± 0.071 µM
- IC50 [21, 43]: 1.9 ± 0.99 µM
- IC50 [22, 44]: 8.5 to 60 µM
- IC50 [22, 45]: 0.22 to 3.4 µM
- IC50 [23]: 37 ± 9.9 µM
- IC50 [24]: 0.34 µM
- IC50 [25]: 0.67 ± 0.14 µM
- IC50 [26]: 11 ± 4 µM
- IC50 [27]: 15 ± 7.9 µM
- IC50 [28]: 1.7 ± 0.14 µM
- IC50 [29]: ≥ 100 µM
- IC50 [30]: 43 ± 2.8 µM
- IC50 [31]: 66 ± 37 µM
- IC50 [32]: 1.6 ± 0.14 µM
- IC50 [33]: 27 ± 13 µM
- IC50 [34]: > 100 µM
- IC50 [35]: 23 ± 3.5 µM
- IC50 [36]: 6.7 ± 0.35 µM
- IC50 [37]: 0.34 ± 0.05 µM
- IC50 [38]: 1.5 ± 0.071 µM
- IC50 [39]: > 100 µM
- IC50 [40]: 23 ± 0.71 µM
- IC50 [41]: 3 ± 0.1 µM
- IC50 [42]: 4.6 ± 2.1 µM
